“Also recorded” adds a separate entry of the source.
Test system: sC5b-9
Assay: Phase 2a study: urinary sC5b-9 (MicroVue sC5b-9 Enzyme Immunoassay);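 further: urine from C3 glomerulopathy or IC-MPGN patients, sandwich ELISA capturing sC5b-9 via C9-ring monoclonal with HRP detection read at 450 nm, values raw or normalized to creatinine or albumin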
Conditions: for Urine sC5b-9 / sC5b-9/ALB / sC5b-9/Cr: 200 mg TID; for sC5b-9/ALB GEOMEAN / sC5b-9/ALB MEAN / sC5b-9/Cr MEAN / Urine sC5b-9 GEOMEAN / Urine sC5b-9 MEAN / sC5b-9/Cr GEOMEAN: patients A-F
Description: 10 patients with either C3 Glomerulopathy (C3G) or Immune-Complex Membranoproliferative Glomerulonephritis (IC-MPGN) are to be enrolled across two dose groups. […] Inclusion criteria include a clinical diagnosis of C3G (C3 glomerulonephritis [C3GN] or dense deposit disease [DDD], the 2 types of C3G) or idiopathic immune-complex membranoproliferative glomerulonephritis (IC-MPGN) by renal biopsy for at least 3 months prior to dosing, with the pathologic diagnosis verified by review of the renal biopsy by the study central pathologist. Patients must have low C3 levels (<50% of the lower limit of normal) and normal or near-normal C4 levels (>90% of the lower limit of normal).
To measure urinary sC5b-9 production, patient urine samples were tested utilizing the MicroVue sC5b-9 Enzyme Immunoassay for the quantitation of sC5b-9 in urine. […] The samples were tested utilizing the MicroVue sC5b-9 Enzyme Immunoassay for the quantitation of sC5b-9 urine, which is a three-step procedure utilizing a micro-assay plate coated with a mouse monoclonal antibody that binds specifically to the C9 ring of sC5b-9, HRP-conjugated antibodies to antigens of sC5b-9, and a chromogenic substrate. In step 1, standards, controls, and test specimens are added to micro-assay wells pre-coated with an anti-sC5b-9 specific monoclonal antibody. sC5b-9 present in the Standards, Controls, or specimens will bind to the immobilized sC5b-9 monoclonal antibody. After incubation, a wash cycle removes unbound material. […] In step 2, horseradish peroxidase (HRP)-conjugated antibodies to antigens of sC5b-9 are added to each test well. The enzyme conjugated antibodies bind to sC5b-9 that was captured by the monoclonal anti-sC5b-9 bound on the surface of the micro-assay wells. After incubation, a wash cycle removes unbound, excess conjugate. In step 3, a chromogenic enzyme substrate is added to each micro-assay well. The bound HRP-conjugate reacts with the substrate, forming a blue color. After incubation the enzyme reaction is stopped chemically, the color changes to yellow, and the color intensity is measured spectrophotometrically at 450 nm. The color intensity of the reaction mixture is proportional to the concentration of sC5b-9 present in the test specimens, standards, and controls. […] Measurements of urinary biomarkers are typically normalized to urine creatinine or albumin levels to account for variation in biomarker levels due to changes in urinary filtration rate.

`CC(=O)c1nn(CC(=O)N2C[C@H](F)C[C@H]2C(=O)Nc2cccc(Br)n2)c2ccc(-c3cnc(C)nc3)cc12` [Compound 1, (2S,4R)-1-(2-(3-acetyl-5-(2-methylpyrimidin-5-yl)-1H-indazol-1-yl)acetyl)-N-(6-bromopyridin-2-yl)-4-fluoropyrrolidine-2-carboxamide] was tested, and the “Urine sC5b-9” value (Patient D, Day 21 Taper) was 44.0 ng/mL, the sC5b-9/ALB (Patient D, Day 21 Taper) was 18 ng/mg and the sC5b-9/Cr (Patient D, Day 21 Taper) was 10.5 µg/mmol. For the same molecule, the “Urine sC5b-9” value (Patient D, Follow-Up Day 24) was 39.9 ng/mL, the sC5b-9/ALB (Patient D, Follow-Up Day 24) was 21 ng/mg and the sC5b-9/Cr (Patient D, Follow-Up Day 24) was 5.9 µg/mmol. The “Urine sC5b-9” value (Patient D, Follow-Up Day 28) was 57.8 ng/mL, the sC5b-9/ALB (Patient D, Follow-Up Day 28) was 21 ng/mg and the sC5b-9/Cr (Patient D, Follow-Up Day 28) was 12.0 µg/mmol. For the same molecule, the “Urine sC5b-9” value (Patient D, Follow-Up Day 49) was 40.3 ng/mL, the sC5b-9/ALB (Patient D, Follow-Up Day 49) was 16 ng/mg and the sC5b-9/Cr (Patient D, Follow-Up Day 49) was 10.3 µg/mmol. The “Urine sC5b-9” value (Patient D, Screen) was 148.7 ng/mL, the sC5b-9/ALB (Patient D, Screen) was 34 ng/mg and the sC5b-9/Cr (Patient D, Screen) was 19.6 µg/mmol. The sC5b-9/ALB (Patient E, Day 1/0 Hour) was 127 ng/mg, the sC5b-9/Cr (Patient E, Day 1/0 Hour) was 54.0 µg/mmol and the “Urine sC5b-9” value (Patient E, Day 1 predose) was 959 ng/mL. The “Urine sC5b-9” value (Patient E, Day 4) was 538 ng/mL, the sC5b-9/ALB (Patient E, Day 4) was 61 ng/mg and the “Urine sC5b-9” value (Patient E, Day 7) was 484 ng/mL. For the same molecule, the sC5b-9/ALB (Patient E, Day 7/0 Hour) was 59 ng/mg, the sC5b-9/Cr (Patient E, Day 7/0 Hour) was 31.5 µg/mmol and the “Urine sC5b-9” value (Patient E, Day 10) was 212 ng/mL. For the same molecule, the sC5b-9/ALB (Patient E, Day 10) was 26 ng/mg, the sC5b-9/Cr (Patient E, Day 10) was 16.1 µg/mmol and the “Urine sC5b-9” value (Patient E, Day 14) was 112 ng/mL. For the same molecule, the sC5b-9/ALB (Patient E, Day 14) was 19 ng/mg, the sC5b-9/Cr (Patient E, Day 14) was 5.0 µg/mmol and the “Urine sC5b-9” value (Patient E, Day 15 Taper) was 70 ng/mL. For the same molecule, the sC5b-9/ALB (Patient E, Day 15 Taper) was 23 ng/mg, the sC5b-9/Cr (Patient E, Day 15 Taper) was 7.5 µg/mmol and the “Urine sC5b-9” value (Patient E, Day 16 Taper) was 42 ng/mL. The sC5b-9/ALB (Patient E, Day 16 Taper) was 15 ng/mg, the sC5b-9/Cr (Patient E, Day 16 Taper) was 4.2 µg/mmol and the “Urine sC5b-9” value (Patient E, Day 17 Taper) was 74 ng/mL. For the same molecule, the sC5b-9/ALB (Patient E, Day 17 Taper) was 20 ng/mg, the sC5b-9/Cr (Patient E, Day 17 Taper) was 9.4 µg/mmol and the “Urine sC5b-9” value (Patient E, Day 21 Taper) was 97 ng/mL. For the same molecule, the sC5b-9/ALB (Patient E, Day 21 Taper) was 50 ng/mg, the sC5b-9/Cr (Patient E, Day 21 Taper) was 12.7 µg/mmol and the “Urine sC5b-9” value (Patient E, Follow-Up Day 24) was 188 ng/mL. For the same molecule, the sC5b-9/ALB (Patient E, Follow-Up Day 24) was 50 ng/mg, the sC5b-9/Cr (Patient E, Follow-Up Day 24) was 15.1 µg/mmol and the “Urine sC5b-9” value (Patient E, Follow-Up Day 28) was 141 ng/mL. For the same molecule, the sC5b-9/ALB (Patient E, Follow-Up Day 28) was 28 ng/mg, the sC5b-9/Cr (Patient E, Follow-Up Day 28) was 8.5 µg/mmol and the “Urine sC5b-9” value (Patient E, Follow-Up Day 49) was 217 ng/mL. For the same molecule, the sC5b-9/ALB (Patient E, Follow-Up Day 49) was 42 ng/mg, the sC5b-9/ALB (Patient F, Day 1/0 Hour) was 120 ng/mg and the sC5b-9/Cr (Patient F, Day 1/0 Hour) was 35.2 µg/mmol. The “Urine sC5b-9” value (Patient F, Day 1 predose) was 348 ng/mL, the “Urine sC5b-9” value (Patient F, Day 4) was 43 ng/mL and the sC5b-9/ALB (Patient F, Day 4) was 58 ng/mg. For the same molecule, the sC5b-9/Cr (Patient F, Day 4) was 8.8 µg/mmol, the “Urine sC5b-9” value (Patient F, Day 7) was 54 ng/mL and the sC5b-9/ALB (Patient F, Day 7/0 Hour) was 147 ng/mg. The sC5b-9/Cr (Patient F, Day 7/0 Hour) was 13.9 µg/mmol, the “Urine sC5b-9” value (Patient F, Day 10) was 34 ng/mL and the “Urine sC5b-9” value (Patient F, Day 14) was 62 ng/mL. The sC5b-9/ALB (Patient F, Day 14) was 37 ng/mg, the sC5b-9/Cr (Patient F, Day 14) was 6.7 µg/mmol and the “Urine sC5b-9” value (Patient F, Day 15 Taper) was 35 ng/mL. The sC5b-9/ALB (Patient F, Day 15 Taper) was 8 ng/mg, the sC5b-9/Cr (Patient F, Day 15 Taper) was 5.8 µg/mmol and the “Urine sC5b-9” value (Patient F, Day 16 Taper) was 25 ng/mL. The sC5b-9/ALB (Patient F, Day 16 Taper) was 30 ng/mg, the sC5b-9/Cr (Patient F, Day 16 Taper) was 7.0 µg/mmol and the “Urine sC5b-9” value (Patient F, Day 17 Taper) was 55 ng/mL. The sC5b-9/ALB (Patient F, Day 17 Taper) was 12 ng/mg, the sC5b-9/Cr (Patient F, Day 17 Taper) was 5.9 µg/mmol and the “Urine sC5b-9” value (Patient F, Day 21 Taper) was 104 ng/mL. The sC5b-9/ALB (Patient F, Day 21 Taper) was 24 ng/mg, the sC5b-9/Cr (Patient F, Day 21 Taper) was 8.2 µg/mmol and the “Urine sC5b-9” value (Patient F, Follow-Up Day 24) was 51 ng/mL. The sC5b-9/ALB (Patient F, Follow-Up Day 24) was 34 ng/mg, the sC5b-9/Cr (Patient F, Follow-Up Day 24) was 9.5 µg/mmol and the “Urine sC5b-9” value (Patient F, Follow-Up Day 28) was 65 ng/mL. The sC5b-9/ALB (Patient F, Follow-Up Day 28) was 57 ng/mg, the sC5b-9/Cr (Patient F, Follow-Up Day 28) was 14.4 µg/mmol and the “Urine sC5b-9” value (Patient F, Follow-Up Day 49) was 180 ng/mL. For the same molecule, the sC5b-9/ALB (Patient F, Follow-Up Day 49) was 59 ng/mg, the sC5b-9/Cr (Patient F, Follow-Up Day 49) was 33.2 µg/mmol and the “sC5b-9/ALB GEOMEAN” value (Day 1/0 Hour) was 125.0 ng/mg. The “sC5b-9/ALB MEAN” value (Day 1/0 Hour) was 335.0 ng/mg, the “sC5b-9/Cr MEAN” value (Day 1/0 Hour) was 163.6 µg/mmol and the “Urine sC5b-9 GEOMEAN” value (Day 1 predose) was 210 ng/mL. The “Urine sC5b-9 MEAN” value (Day 1 predose) was 1120 ng/mL, the “Urine sC5b-9 GEOMEAN” value (Day 4) was 94 ng/mL and the “Urine sC5b-9 MEAN” value (Day 4) was 472 ng/mL. For the same molecule, the “sC5b-9/ALB GEOMEAN” value (Day 4) was 80.6 ng/mg, the “sC5b-9/ALB MEAN” value (Day 4) was 165.3 ng/mg and the “sC5b-9/Cr GEOMEAN” value (Day 4) was 14.0 µg/mmol. For the same molecule, the “sC5b-9/Cr MEAN” value (Day 4) was 37.0 µg/mmol, the “Urine sC5b-9 GEOMEAN” value (Day 7) was 91 ng/mL and the “Urine sC5b-9 MEAN” value (Day 7) was 483 ng/mL. For the same molecule, the “sC5b-9/ALB GEOMEAN” value (Day 7/0 Hour) was 102.8 ng/mg, the “sC5b-9/ALB MEAN” value (Day 7/0 Hour) was 171.5 ng/mg and the “sC5b-9/Cr GEOMEAN” value (Day 7/0 Hour) was 17.1 µg/mmol. For the same molecule, the “sC5b-9/Cr MEAN” value (Day 7/0 Hour) was 38.0 µg/mmol, the “Urine sC5b-9 GEOMEAN” value (Day 10) was 56 ng/mL and the “Urine sC5b-9 MEAN” value (Day 10) was 231 ng/mL. The “Urine sC5b-9 GEOMEAN” value (Day 15 Taper) was 66 ng/mL, the “Urine sC5b-9 MEAN” value (Day 15 Taper) was 588 ng/mL and the “sC5b-9/ALB GEOMEAN” value (Day 15 Taper) was 48.2 ng/mg. For the same molecule, the “sC5b-9/ALB MEAN” value (Day 15 Taper) was 192.6 ng/mg, the “sC5b-9/Cr GEOMEAN” value (Day 15 Taper) was 11.9 µg/mmol and the “sC5b-9/Cr MEAN” value (Day 15 Taper) was 55.8 µg/mmol. For the same molecule, the “Urine sC5b-9 GEOMEAN” value (Day 17 Taper) was 71 ng/mL, the “Urine sC5b-9 MEAN” value (Day 17 Taper) was 488 ng/mL and the “sC5b-9/ALB GEOMEAN” value (Day 17 Taper) was 51.5 ng/mg. The “sC5b-9/ALB MEAN” value (Day 17 Taper) was 191.3 ng/mg, the “sC5b-9/Cr GEOMEAN” value (Day 17 Taper) was 11.6 µg/mmol and the “sC5b-9/Cr MEAN” value (Day 17 Taper) was 45.3 µg/mmol. For the same molecule, the “Urine sC5b-9 GEOMEAN” value (Day 21 Taper) was 99 ng/mL, the “Urine sC5b-9 MEAN” value (Day 21 Taper) was 468 ng/mL and the “sC5b-9/ALB GEOMEAN” value (Day 21 Taper) was 76.3 ng/mg. For the same molecule, the “sC5b-9/ALB MEAN” value (Day 21 Taper) was 190.1 ng/mg, the “sC5b-9/Cr GEOMEAN” value (Day 21 Taper) was 15.2 µg/mmol and the “sC5b-9/Cr MEAN” value (Day 21 Taper) was 58.3 µg/mmol. For the same molecule, the “Urine sC5b-9 GEOMEAN” value (Follow-Up Day 24) was 108 ng/mL, the “Urine sC5b-9 MEAN” value (Follow-Up Day 24) was 724 ng/mL and the “sC5b-9/ALB GEOMEAN” value (Follow-Up Day 24) was 92.3 ng/mg. For the same molecule, the “sC5b-9/ALB MEAN” value (Follow-Up Day 24) was 289.8 ng/mg, the “sC5b-9/Cr GEOMEAN” value (Follow-Up Day 24) was 17.8 µg/mmol and the “sC5b-9/Cr MEAN” value (Follow-Up Day 24) was 115.8 µg/mmol. The “Urine sC5b-9 GEOMEAN” value (Follow-Up Day 28) was 113 ng/mL, the “Urine sC5b-9 MEAN” value (Follow-Up Day 28) was 457 ng/mL and the “sC5b-9/ALB GEOMEAN” value (Follow-Up Day 28) was 80.5 ng/mg. For the same molecule, the “sC5b-9/ALB MEAN” value (Follow-Up Day 28) was 200.5 ng/mg, the “sC5b-9/Cr MEAN” value (Follow-Up Day 28) was 64.2 µg/mmol and the “Urine sC5b-9 GEOMEAN” value (Follow-Up Day 49) was 162 ng/mL. The “Urine sC5b-9 MEAN” value (Follow-Up Day 49) was 2440 ng/mL, the “sC5b-9/ALB GEOMEAN” value (Follow-Up Day 49) was 123.3 ng/mg and the “sC5b-9/ALB MEAN” value (Follow-Up Day 49) was 1111.7 ng/mg. The “sC5b-9/Cr GEOMEAN” value (Follow-Up Day 49) was 23.5 µg/mmol, the “sC5b-9/Cr MEAN” value (Follow-Up Day 49) was 159.5 µg/mmol and the “Urinary sC5b-9 levels” value (two-week treatment) was “reduced significantly; also recorded: reduced in all patients”. For the same molecule, the “Urinary sC5b-9 levels normalized to urinary creatinine or albumin” value (two-week treatment) was “reduced significantly”.

Reference: patent US20210215714A1, “COMPLEMENT ALTERNATIVE PATHWAY-ASSOCIATED NEPHROPATHY BIOMARKERS” (Achillion Pharmaceuticals, Inc., priority 2018, published 2021)
